Reference: US20140309280A1, “ASSAYS FOR MICRO-RNA-182 AS A BIOMARKER FOR MUSCLE ATROPHY AND THERAPEUTIC APPLICATIONS” (EMORY UNIVERSITY, priority 2013, published 2014)

What was measured:
gastrocnemius muscle = experiment: Streptozotocin diabetes model of muscle atrophy: FoxO3 mRNA and miR-182 in gastrocnemius muscle; type: in vivo; conditions: rats, STZ 125 mg/kg single intravenous injection, third day; for decrease of miR-182 in muscle: vs controls
Procedure: (§1) FoxO3 mRNA (Panels A and C) and miR-182 (Panels B and D) were measured in either cells treated with Dex (1 μM) for 6 h (Panels A and B) or in gastrocnemius muscles of either control or streptozotocin-injected, acutely diabetic rats (Panels C and D). Results are reported as the mean±SEM of the fold-change of the respective control values.
Whether there is a similar relationship between FoxO3 and miR-182 expression was investigated in vivo in skeletal muscle during atrophy. STZ-induced diabetes mellitus causes muscle atrophy and responses (e.g., increased atrogin-1 expression) that are consistent with FoxO3 activation. Therefore, FoxO3 expression was evaluated during STZ-induced diabetes mellitus by measuring FoxO3 mRNA. FoxO3 mRNA was increased 75% (FIG. 2D) whereas the level of miR-182 was decreased 43% (P<0.05) (FIG. 2D).
Male rats (˜150 gm) received a single intravenous injection of STZ (125 mg/kg) in citrate buffer. STZ-injected and control rats were pair-fed and on the third day after injection the animals were anesthetized, and the gastrocnemius muscle was harvested. Food was withheld during the night before the tissue harvest to avoid the confounding influences of variable food intake on skeletal muscle protein metabolism. All animal studies were approved by the Emory Institutional Animal Care and Use Committee (IACUC).

C2C12 myotubes [1] = experiment: FoxO3 mRNA and intracellular miR-182 in C2C12 myotubes treated with Dex to induce atrophy; type: cell-based, Mouse; conditions: Dex 1 μM, 6 hours
Procedure: as §1
To test this, C2C12 myotubes were treated with dexamethasone (Dex), a synthetic glucocorticoid, which induces atrophy, in part, by increasing FoxO3 activity in C2C12 myotubes. […] Simultaneously, the amount of intracellular miR-182 decreased 44% (FIG. 2B).
Mouse C2C12 myoblasts (American Type Culture Collection, Manassas, Va.) were cultured in growth media [Dulbecco modified Eagle medium plus 10% fetal bovine serum (Atlanta Biologicals, Lawrenceville, Ga.) and 1% penicillin and streptomycin (Invitrogen, Carlsbad, Calif.)] and studied between passage 3 and 7. Myoblasts were grown to ˜95% confluence in a 6-well plate and then differentiated into myotubes by replacing growth media with differentiation media (DMEM supplemented with 2% fetal bovine serum and 1% PS) for 3 days. In some experiments, myotubes were treated with 1 μM Dex for 6 hours before being harvested.

C2C12 myotubes [2] = experiment: miR-182 in media exosomes released from C2C12 myotubes after Dex; type: cell-based, Mouse; conditions: Dex 6 h
Procedure: Fresh differentiation media containing 100 nM Dex or vehicle was added to myotubes for 6 h. Afterwards, RNA was prepared from isolated media exosomes and miR-182, along U6 controls, was measured.
One mechanism by which microRNAs are protected from degradation is through incorporation into protective exosomes. This has led some to propose that the relative abundance patterns of microRNAs in various tissues and fluids as well as exosomes and other microvesicles are a reflection of underlying pathophysiological processes. Dex administration enhances the exosomal packaging and release of two atrophy-related microRNAs (miR-1 and miR-23a) into the media of C2C12 myotubes. This led us to test whether miR-182 is incorporated into exosomes that are released from myotubes. The amount of miR-182 in exosomes, normalized to U6 small nuclear RNA, is increased 95% in exosomes following Dex treatment to myotubes (FIG. 4). […]
To quantify exosomal microRNA, exosome-associated RNA, including microRNA, was isolated using a urine exosome RNA isolation kit (Norgen Biotek, Thorolod, ON, Canada) according to the manufacturer's instructions for isolating RNA from extracellular fluids. Subsequent quantitative PCR (qPCR) was performed.

Row | Structure (SMILES) | decrease of miR-182 in muscle (gastrocnemius muscle; P<0.05) [%] | decrease of miR-182 in muscle (gastrocnemius muscle; P<0.05, listed as STZ) [%] | increase of FoxO3 mRNA in muscle (gastrocnemius muscle; vs pair-fed controls) [%] | decrease of intracellular miR-182 (C2C12 myotubes [1]) [%] | increase of FoxO3 mRNA (C2C12 myotubes [1]) [%] | decrease of intracellular miR-182 (C2C12 myotubes [1]; listed as dexamethasone) [%] | increase of miR-182 in exosomes, normalized to U6 small nuclear RNA (C2C12 myotubes [2]) [%]
1 | CN(N=O)C(=O)N[C@H]1C(O)O[C@H](CO)[C@@H](O)[C@@H]1O (mixture of isomers) [streptozotocin] | 44 | 43 | 75 | – | – | – | –
2 | C[C@@H]1C[C@H]2[C@@H]3CCC4=CC(=O)C=C[C@]4(C)[C@@]3(F)[C@@H](O)C[C@]2(C)[C@@]1(O)C(=O)CO [Dexamethasone, dexamethasone] | – | – | – | 63 | 133 | 44 | 95
